The target of experiment [1] is Glycogen synthase kinase-3 beta (Homo sapiens) (UniProt P49841). The experiment is described as follows: Residual activity of GSK3-beta at 1 uM by microplate scintillation counting.
Experiment [2] deals with T1, Inhibitor of nuclear factor kappa-B kinase subunit epsilon (Homo sapiens) (UniProt Q14164).
T1 sequence (whole entry): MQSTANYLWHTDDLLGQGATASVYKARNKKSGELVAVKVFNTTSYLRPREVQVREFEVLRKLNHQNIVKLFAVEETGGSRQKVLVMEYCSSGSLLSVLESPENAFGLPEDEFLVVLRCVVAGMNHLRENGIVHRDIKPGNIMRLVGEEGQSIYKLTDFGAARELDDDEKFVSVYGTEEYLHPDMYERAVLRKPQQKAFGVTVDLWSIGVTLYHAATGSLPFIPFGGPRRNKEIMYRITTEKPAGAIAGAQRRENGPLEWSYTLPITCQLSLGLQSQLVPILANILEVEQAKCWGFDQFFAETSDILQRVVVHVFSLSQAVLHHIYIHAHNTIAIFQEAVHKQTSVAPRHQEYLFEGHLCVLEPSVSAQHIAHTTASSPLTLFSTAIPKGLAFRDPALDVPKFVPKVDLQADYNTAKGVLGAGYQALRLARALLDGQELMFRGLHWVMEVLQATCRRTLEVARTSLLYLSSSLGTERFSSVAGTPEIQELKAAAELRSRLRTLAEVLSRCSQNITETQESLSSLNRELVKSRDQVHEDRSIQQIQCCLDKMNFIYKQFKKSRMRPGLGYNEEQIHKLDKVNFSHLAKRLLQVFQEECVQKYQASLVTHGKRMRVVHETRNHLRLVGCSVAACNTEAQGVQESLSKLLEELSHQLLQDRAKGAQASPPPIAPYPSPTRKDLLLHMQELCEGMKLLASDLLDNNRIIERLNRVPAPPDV
The experiment is described as follows: Residual activity of IKKepsilon at 1 uM by microplate scintillation counting.

For experiment [3], the target named is T2, Tyrosine-protein kinase Tec (Homo sapiens) (UniProt P42680).
T2 sequence (whole entry): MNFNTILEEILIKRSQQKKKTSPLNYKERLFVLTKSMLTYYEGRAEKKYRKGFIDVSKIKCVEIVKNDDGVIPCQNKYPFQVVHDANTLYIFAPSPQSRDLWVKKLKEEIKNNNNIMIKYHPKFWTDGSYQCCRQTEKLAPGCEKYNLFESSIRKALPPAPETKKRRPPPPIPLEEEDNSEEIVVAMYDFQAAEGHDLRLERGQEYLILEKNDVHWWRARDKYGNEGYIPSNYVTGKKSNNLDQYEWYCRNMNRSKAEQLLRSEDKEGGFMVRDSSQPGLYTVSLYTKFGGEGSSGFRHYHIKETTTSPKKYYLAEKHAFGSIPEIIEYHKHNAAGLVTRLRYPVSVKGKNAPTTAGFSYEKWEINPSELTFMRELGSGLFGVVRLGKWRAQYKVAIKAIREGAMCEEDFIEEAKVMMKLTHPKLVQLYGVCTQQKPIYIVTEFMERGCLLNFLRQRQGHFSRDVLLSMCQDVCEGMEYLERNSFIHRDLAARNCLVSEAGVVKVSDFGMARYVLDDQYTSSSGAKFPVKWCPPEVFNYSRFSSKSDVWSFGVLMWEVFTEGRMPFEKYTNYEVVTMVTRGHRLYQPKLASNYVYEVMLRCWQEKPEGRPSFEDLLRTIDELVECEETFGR
The experiment is described as follows: Residual activity of TEC at 1 uM by microplate scintillation counting.

In experiment [4] the target is Casein kinase I isoform gamma-1 (Homo sapiens) (UniProt Q9HCP0). The experiment is described as follows: Residual activity of CK1gamma1 at 10 uM by microplate scintillation counting.
Sequence of Casein kinase I isoform gamma-1 (Homo sapiens) (Q9HCP0 whole entry, looked up, canonical isoform): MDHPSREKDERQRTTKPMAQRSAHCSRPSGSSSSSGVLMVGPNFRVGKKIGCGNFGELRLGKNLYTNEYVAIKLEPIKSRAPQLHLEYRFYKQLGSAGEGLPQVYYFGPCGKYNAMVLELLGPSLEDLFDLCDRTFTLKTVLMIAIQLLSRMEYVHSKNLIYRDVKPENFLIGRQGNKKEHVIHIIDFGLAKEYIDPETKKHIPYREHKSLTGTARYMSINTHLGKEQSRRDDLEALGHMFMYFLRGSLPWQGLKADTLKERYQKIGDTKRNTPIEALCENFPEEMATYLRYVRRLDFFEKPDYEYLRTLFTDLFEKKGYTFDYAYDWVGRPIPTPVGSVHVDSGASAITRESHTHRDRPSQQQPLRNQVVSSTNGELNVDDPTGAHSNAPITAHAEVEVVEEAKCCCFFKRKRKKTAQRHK
Experiment [5] addresses RAC-beta serine/threonine-protein kinase (Homo sapiens) (UniProt P31751). In words: Residual activity of AKT2 at 0.1 uM by microplate scintillation counting.
Experiment [6] deals with ALK tyrosine kinase receptor (Homo sapiens) (UniProt Q9UM73). In words: Residual activity of ALK at 0.1 uM by microplate scintillation counting.
Sequence of ALK tyrosine kinase receptor (Homo sapiens) (Q9UM73 19-1620 limits assumed): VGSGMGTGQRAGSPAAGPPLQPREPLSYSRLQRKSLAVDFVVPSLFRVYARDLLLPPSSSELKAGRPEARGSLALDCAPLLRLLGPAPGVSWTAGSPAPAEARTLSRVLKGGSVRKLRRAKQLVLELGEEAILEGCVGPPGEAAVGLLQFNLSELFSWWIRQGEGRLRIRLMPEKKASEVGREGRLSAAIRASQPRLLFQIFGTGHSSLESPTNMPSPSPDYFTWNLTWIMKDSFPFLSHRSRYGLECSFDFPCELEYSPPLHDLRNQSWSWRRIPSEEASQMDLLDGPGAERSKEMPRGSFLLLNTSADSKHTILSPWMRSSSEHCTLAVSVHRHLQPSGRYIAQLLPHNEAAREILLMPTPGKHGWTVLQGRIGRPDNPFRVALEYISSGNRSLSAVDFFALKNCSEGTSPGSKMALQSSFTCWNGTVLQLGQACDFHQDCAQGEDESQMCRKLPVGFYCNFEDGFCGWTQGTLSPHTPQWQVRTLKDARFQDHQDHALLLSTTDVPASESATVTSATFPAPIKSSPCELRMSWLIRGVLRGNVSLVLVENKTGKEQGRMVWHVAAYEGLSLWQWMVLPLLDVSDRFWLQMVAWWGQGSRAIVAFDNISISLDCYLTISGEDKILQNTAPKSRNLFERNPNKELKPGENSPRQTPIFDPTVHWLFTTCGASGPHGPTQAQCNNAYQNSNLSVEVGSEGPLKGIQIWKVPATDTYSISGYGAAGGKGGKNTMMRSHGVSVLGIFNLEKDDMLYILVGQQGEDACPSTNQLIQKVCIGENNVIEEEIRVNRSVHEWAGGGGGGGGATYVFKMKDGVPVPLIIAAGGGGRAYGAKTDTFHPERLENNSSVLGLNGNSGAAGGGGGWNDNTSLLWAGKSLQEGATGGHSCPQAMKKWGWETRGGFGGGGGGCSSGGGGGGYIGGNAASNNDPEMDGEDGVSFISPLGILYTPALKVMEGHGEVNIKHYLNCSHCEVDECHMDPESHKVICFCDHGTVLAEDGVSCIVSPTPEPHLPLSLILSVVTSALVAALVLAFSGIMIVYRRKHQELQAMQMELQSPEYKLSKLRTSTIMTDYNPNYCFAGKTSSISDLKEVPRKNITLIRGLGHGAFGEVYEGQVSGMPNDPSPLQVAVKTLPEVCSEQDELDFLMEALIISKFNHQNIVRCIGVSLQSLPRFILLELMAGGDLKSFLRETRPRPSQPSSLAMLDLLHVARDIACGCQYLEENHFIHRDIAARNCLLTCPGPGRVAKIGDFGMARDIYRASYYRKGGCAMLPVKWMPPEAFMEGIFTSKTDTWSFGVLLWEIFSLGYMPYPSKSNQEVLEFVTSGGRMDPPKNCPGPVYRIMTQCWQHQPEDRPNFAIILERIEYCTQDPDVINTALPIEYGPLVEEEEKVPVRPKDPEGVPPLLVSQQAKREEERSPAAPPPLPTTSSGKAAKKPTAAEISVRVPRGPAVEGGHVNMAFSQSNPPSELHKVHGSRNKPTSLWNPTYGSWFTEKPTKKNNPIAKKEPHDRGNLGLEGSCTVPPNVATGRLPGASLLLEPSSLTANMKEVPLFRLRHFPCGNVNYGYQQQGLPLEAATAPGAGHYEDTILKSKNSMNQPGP
The target of experiment [7] is Rho-associated protein kinase 2 (Homo sapiens) (UniProt O75116). In words: Residual activity of ROCK2 at 10 uM by microplate scintillation counting.
Sequence of Rho-associated protein kinase 2 (Homo sapiens) (O75116 whole entry, looked up): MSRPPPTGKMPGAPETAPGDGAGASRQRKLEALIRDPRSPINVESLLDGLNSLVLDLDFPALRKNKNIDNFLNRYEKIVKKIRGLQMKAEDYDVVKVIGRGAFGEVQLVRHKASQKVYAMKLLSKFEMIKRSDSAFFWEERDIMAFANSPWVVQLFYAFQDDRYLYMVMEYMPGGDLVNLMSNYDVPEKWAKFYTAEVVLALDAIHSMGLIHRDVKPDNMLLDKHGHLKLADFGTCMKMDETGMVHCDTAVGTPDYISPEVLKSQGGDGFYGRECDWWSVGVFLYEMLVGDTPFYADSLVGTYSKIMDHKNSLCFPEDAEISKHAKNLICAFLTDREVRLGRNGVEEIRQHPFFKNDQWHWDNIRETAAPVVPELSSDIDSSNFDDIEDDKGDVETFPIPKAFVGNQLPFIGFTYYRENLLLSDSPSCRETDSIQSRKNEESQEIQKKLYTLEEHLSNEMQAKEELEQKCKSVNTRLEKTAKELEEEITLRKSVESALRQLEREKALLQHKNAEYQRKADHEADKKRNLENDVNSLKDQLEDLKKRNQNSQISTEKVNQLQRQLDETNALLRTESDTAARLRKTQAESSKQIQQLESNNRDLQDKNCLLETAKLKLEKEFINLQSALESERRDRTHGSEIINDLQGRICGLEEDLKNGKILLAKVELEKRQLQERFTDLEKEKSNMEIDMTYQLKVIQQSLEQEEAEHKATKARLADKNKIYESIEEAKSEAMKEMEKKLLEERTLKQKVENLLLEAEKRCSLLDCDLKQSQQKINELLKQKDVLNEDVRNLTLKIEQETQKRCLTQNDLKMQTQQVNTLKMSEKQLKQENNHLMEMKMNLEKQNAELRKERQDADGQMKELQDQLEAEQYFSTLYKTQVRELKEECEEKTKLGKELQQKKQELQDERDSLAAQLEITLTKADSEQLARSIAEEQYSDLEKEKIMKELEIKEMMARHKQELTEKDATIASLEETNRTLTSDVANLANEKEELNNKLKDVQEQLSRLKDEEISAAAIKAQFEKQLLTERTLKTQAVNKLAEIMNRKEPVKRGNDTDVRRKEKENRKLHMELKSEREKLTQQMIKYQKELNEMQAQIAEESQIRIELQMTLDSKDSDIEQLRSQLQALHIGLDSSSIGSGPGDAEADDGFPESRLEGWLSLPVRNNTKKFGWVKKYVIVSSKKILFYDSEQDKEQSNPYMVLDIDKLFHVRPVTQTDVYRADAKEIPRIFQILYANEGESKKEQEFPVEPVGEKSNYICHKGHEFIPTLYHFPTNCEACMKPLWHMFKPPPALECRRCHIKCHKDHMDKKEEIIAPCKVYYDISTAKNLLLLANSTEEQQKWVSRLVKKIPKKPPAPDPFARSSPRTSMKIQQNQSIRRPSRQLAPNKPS
Experiment [8] deals with T3, Serine/threonine-protein kinase TBK1 (Homo sapiens) (UniProt Q9UHD2).
T3 sequence (whole entry): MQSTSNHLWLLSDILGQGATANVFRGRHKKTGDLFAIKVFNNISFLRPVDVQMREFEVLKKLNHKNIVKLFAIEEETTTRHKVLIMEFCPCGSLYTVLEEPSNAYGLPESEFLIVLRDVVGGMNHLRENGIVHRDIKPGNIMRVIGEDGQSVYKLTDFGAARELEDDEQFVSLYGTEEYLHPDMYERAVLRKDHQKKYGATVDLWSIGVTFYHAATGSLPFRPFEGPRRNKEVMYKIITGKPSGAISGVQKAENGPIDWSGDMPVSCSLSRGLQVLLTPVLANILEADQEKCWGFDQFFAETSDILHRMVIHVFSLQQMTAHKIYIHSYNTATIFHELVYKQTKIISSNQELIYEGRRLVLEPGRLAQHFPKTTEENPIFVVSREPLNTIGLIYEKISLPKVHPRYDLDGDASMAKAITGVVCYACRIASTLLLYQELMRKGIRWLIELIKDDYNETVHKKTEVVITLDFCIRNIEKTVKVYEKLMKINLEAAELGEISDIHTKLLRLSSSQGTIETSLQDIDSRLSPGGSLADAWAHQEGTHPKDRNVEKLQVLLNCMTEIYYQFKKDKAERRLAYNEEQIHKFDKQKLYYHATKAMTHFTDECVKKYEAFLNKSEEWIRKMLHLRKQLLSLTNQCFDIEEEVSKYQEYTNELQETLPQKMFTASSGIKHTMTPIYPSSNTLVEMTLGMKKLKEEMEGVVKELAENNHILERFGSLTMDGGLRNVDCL
The experiment is described as follows: Residual activity of TBK1 at 10 uM by microplate scintillation counting.

Sequence of Glycogen synthase kinase-3 beta (Homo sapiens) (P49841 whole entry, looked up): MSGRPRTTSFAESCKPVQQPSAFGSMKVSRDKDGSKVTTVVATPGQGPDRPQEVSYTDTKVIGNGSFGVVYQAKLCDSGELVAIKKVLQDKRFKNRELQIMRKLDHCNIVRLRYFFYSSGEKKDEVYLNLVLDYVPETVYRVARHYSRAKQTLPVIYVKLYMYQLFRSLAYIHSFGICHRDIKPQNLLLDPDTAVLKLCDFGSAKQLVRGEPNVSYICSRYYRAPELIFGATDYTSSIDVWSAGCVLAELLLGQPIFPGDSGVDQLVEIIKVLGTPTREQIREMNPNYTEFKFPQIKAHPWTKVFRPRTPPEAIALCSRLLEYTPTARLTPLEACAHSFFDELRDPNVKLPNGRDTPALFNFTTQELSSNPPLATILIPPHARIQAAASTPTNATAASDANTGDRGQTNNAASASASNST
Sequence of RAC-beta serine/threonine-protein kinase (Homo sapiens) (P31751 whole entry): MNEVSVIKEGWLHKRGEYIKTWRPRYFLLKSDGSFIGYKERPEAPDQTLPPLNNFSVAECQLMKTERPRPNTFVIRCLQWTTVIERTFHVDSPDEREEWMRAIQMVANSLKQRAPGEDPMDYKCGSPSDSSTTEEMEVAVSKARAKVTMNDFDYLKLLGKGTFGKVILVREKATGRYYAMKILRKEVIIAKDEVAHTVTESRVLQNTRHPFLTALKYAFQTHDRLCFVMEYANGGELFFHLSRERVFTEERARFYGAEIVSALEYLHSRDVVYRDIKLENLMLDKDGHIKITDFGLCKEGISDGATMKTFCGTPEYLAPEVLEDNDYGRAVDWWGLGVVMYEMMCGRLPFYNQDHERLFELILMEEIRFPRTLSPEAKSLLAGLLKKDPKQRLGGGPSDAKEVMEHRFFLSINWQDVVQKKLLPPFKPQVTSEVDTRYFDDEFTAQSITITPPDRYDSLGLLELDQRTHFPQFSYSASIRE

Regarding `COc1cc2c(Oc3ccc(-c4nc5ccccc5s4)cc3)ncnc2cc1OCCCN1CCN(C)CC1`, the residual activity (usually the signal under treatment as a percentage of the control signal) was 84% in experiment [1]; 90% in experiment [2]; 96% in experiment [3]; 256% in experiment [4]; 97% in experiment [5]; 106% in experiment [6]. The residual activity stood at 54% in experiment [7] and 171% in experiment [8].
As for `COc1cc2c(Oc3ccc(-c4nc5ccccc5s4)cc3)ncnc2cc1OCCCN1CCCC1`, the residual activity was found to be 91% in experiment [1]; 98% in experiment [2]; 93% in experiment [3]; 200% in experiment [4]; 102% in experiment [5]; 102% in experiment [6]. The residual activity turned out to be 84% in experiment [7] and 143% in experiment [8].
On to `COc1cc2c(Oc3ccc(-c4nc5ccccc5s4)cc3F)ncnc2cc1OCCCN1CCN(C)CC1`, for which the residual activity in experiment [1] was 93%; in experiment [2], 81%; in experiment [3] it was 90%; in experiment [4] it was 229%; in experiment [5], 108%; in experiment [6], 114%. The residual activity in experiment [7] came to 47%; in experiment [8], 141%.
